Experimental data from ChEMBL document CHEMBL1121453, “Mammalian alkaloids. 8. Synthesis and biological effects of tetrahydropapaveroline related 1-benzyltetrahydroisoquinolines” (J Med Chem, 1980).

Key:
Format in all cases: cell membranes, Membrane
Adrenergic receptor beta = Adrenergic receptor beta (Rattus norvegicus, UniProt P18090+P10608+P26255); assay: Inhibition of [3H]dihydroalprenolol binding to Beta adrenergic receptor from rat cerebral cortical membranes
[1] = target: Adrenergic receptor alpha; assay: Inhibition of [3H]WB-4101 binding to alpha adrenergic receptor from rat cerebral cortical membranes
Dopamine receptor = assay: Inhibition of [3H]spiroperidol binding to dopamine receptor from rat striatum membranes

SMILES | Ki (Adrenergic receptor beta) [µM] | Ki [1] [µM] | Ki (Dopamine receptor) [µM]
COc1ccc(CC2NCCc3cc(OC)c(O)cc32)cc1O (configuration not stated) | 4 | 7.5 | 3.8
COc1cc2c(cc1O)C(Cc1ccc(O)c(O)c1)NCC2 (configuration not stated) | 0.2 | 7.5 | 4.5
Oc1ccc(C[C@H]2NCCc3cc(O)c(O)cc32)cc1O | 30 | 25 | 35
Oc1cc(Br)c(CC2NCCc3cc(O)c(O)cc32)cc1O (configuration not stated) | 40 | 0.5 | 1.5
COc1cc(CC2(C(=O)O)NCCc3cc(O)c(O)cc32)ccc1O (configuration not stated) | > 100 | > 100 | > 100
O=C(O)C1(Cc2ccc(O)c(O)c2)NCCc2cc(O)c(O)cc21 (configuration not stated) | > 100 | > 100 | > 100
COc1ccc(C[C@H]2NCCc3cc(OC)c(O)cc32)cc1O | 30 | 10 | 30
Oc1ccc(CC2NCCc3cc(O)c(O)cc32)cc1O (configuration not stated) | 0.3 | 40 | 10
COc1cc(CC2NCCc3cc(O)c(O)cc32)ccc1O (configuration not stated) | 0.5 | 4.5 | 5
Oc1ccc(C[C@@H]2NCCc3cc(O)c(O)cc32)cc1O | 0.3 | 5 | 2
COc1ccc(C[C@@H]2NCCc3cc(OC)c(O)cc32)cc1O | 1.3 | 5 | 1.5
COc1ccc(CC2NCCc3cc(OC)c(OC)cc32)cc1OC (configuration not stated) [TETRAHYDROPAPAVERINE] | 1 | 10 | –
COc1cc(C[C@@H]2NCCc3cc(O)c(O)cc32)cc(OC)c1OC [TRETOQUINOL] | – | 10 | 5
